From patent US20250213478A1, “CATIONIC LIPID HAVING DISULFIDE BOND, LIPID MEMBRANE STRUCTURE INCLUDING SAME, NUCLEIC ACID INTRODUCTION AGENT AND PHARMACEUTICAL COMPOSITION CONTAINING ANY ONE OF SAME, METHOD FOR INTRODUCING NUCLEIC ACID INTO CELL OR TARGET CELL, AND METHOD FOR PRODUCING CELLULAR PHARMACEUTICAL” (NOF Corporation, priority 2022, published 2025) come the findings set out here.

The nature of data set [1]: Particle size, PdI and zeta potential of mRNA-encapsulating LNPs (dynamic light scattering). To be noted: mRNA-encapsulating LNP, cationic lipid:DOPC:Chol=55:5:40 + about 1 mol DMG-PEG2k; for PdI / particle size: dynamic light scattering; for zeta potential: physiological pH. It counts as physicochemical. The method, then:
A 10 mM ethanol solution of cationic lipid, a 5 mM ethanol solution of DOPC, and a 10 mM ethanol solution of Chol were mixed at desired ratio (cationic lipid:DOPC:Chol=55:5:40 (molar ratio)) in an Eppendorf tube to achieve the total lipid amount of 720 nmol. To the obtained mixture was further added DMG-PEG2k (2 mM ethanol solution) in an amount of about 1 mol with respect to the total amount 100 mol of cationic lipid, DOPC, and Chol, and then ethanol was added to prepare an ethanol solution of the lipid (total amount: 360 μL).
An acidic buffer solution (total amount: 1080 μL) of nucleic acid was prepared by weighing 7.2 μg of mRNA solution (0.6 mg/mL) in a 5 mL tube and adding acidic malate buffer (20 mM, pH 3.0) containing NaCl at a final concentration of 30 mM.
An acidic buffer solution of nucleic acid and an ethanol solution of lipid were each weighed in a syringe. Using an ultra high-speed nanomedicament producing apparatus NanoAssmblr (manufactured by Precision NanoSystems), LNP was prepared under the conditions of addition rate of acidic buffer solution of nucleic acid: 3 mL/min, addition rate of ethanol solution of lipid: 1 mL/min, and syringe holder temperature: 25° C., and collected in a 15 mL tube. MES buffer (pH 6.5) (3000 μL) was added to the 15 mL tube, the obtained mixture was transferred to Amicon Ultra 4, and ultrafiltration was performed under centrifugation conditions (25° C., 1000 g, 6 min) to concentrate the mixture to about 100 μL. The obtained concentrate was diluted with PBS to 4 mL, and the mixture was concentrated again under centrifugation conditions (25° C., 1000 g, 6 min), and this operation was performed twice. The obtained concentrate was diluted with PBS to a lipid concentration of 2 mM to give a dispersion containing LNP.
The particle size, PdI (Polydispersity Index), and zeta potential of the mRNA-encapsulating LNP prepared by the method of the above-mentioned 1 were measured by a dynamic light scattering method. In Comparative Example, the cationic lipid described in the aforementioned Table 3 were used.

The nature of data set [2]: Measurement of Liposomal pKa of LNP (TNS fluorescence). It counts as physicochemical. The conditions noted are these: LNP without nucleic acid, cationic lipid:DOPC:Chol=52.5:7.5:40 + about 1.5 mol DMG-PEG2k; pH at which relative TNS fluorescence intensity was 50%. The method, then:
Lipid nanoparticles (LNP) without containing nucleic acid were used for the evaluation of Liposomal pKa.
A 10 mM ethanol solution of cationic lipid, a 5 mM ethanol solution of DOPC, and a 10 mM ethanol solution of Chol were mixed at desired ratio (cationic lipid:DOPC:Chol=52.5:7.5:40 (molar ratio)) in an Eppendorf tube to achieve the total lipid amount of 720 nmol. To the obtained mixture was further added DMG-PEG2k (2 mM ethanol solution) in an amount of about 1.5 mol with respect to the total amount 100 mol of cationic lipid, DOPC, and Chol, and then ethanol was added to prepare an ethanol solution of the lipid (total amount: 360 μL).
An acidic malic acid buffer (20 mM, pH 3.0) (1080 μL) containing NaCl at a final concentration of 30 mM and an ethanol solution (360 μL) of lipid were each weighed in a syringe. Using an ultra high-speed nanomedicament producing apparatus NanoAssmblr (manufactured by Precision NanoSystems), LNP was prepared under the conditions of addition rate of acidic buffer solution: 3 mL/min, addition rate of ethanol solution of lipid: 1 mL/min, and syringe holder temperature: 25° C., and collected in a 15 mL tube. MES buffer (pH 6.5) (3000 μL) was added to the 15 mL tube, the obtained mixture was transferred to Amicon Ultra 4, and ultrafiltration was performed under centrifugation conditions (25° C., 1000 g, 6 min) to concentrate the mixture to about 100 μL. The obtained concentrate was diluted with PBS to 4 mL, and the mixture was concentrated again under centrifugation conditions (25° C., 1000 g, 6 min), and this operation was performed twice. The obtained concentrate was diluted with PBS to a lipid concentration of 0.5 mM to give a dispersion containing LNP.
20 mM Citrate buffer, sodium phosphate buffer, and tris HCl buffer, each containing NaCl at a final concentration of 150 mM and adjusted to various pHs within the range of pH 3.0 to 10.0, were prepared. TNS (manufactured by Sigma) was diluted with ultrapure water to 0.6 mM. TNS solution (2 μL), dispersions (12 μL) containing LNP prepared in [Experimental Example 1], 1., and buffers adjusted to various pHs (186 μL) were added to a black 96 well plate. The plate was protected from light and shaken at 400 rpm for 10 min. The fluorescence intensity (excitation: 321 nm/emission: 447 nm) was measured using a plate reader (manufactured by TECAN). The relative fluorescence intensity was calculated as a percentage, with the maximum value of the fluorescence intensity in each LNP being 100% and the minimum value being 0%. Furthermore, the pH at which the relative fluorescence intensity was 50% was taken as Liposomal pKa. In Comparative Example, the cationic lipid described in the aforementioned Table 3 were used.

In data set [3] the test system is BALB/c mouse. Description: Evaluation of in vivo gene expression (luciferase mRNA-encapsulating LNP, IVIS of isolated organs). The method, then:
(§1) LNP encapsulating mRNA that expresses luciferase (cationic lipid:DOPC:Chol:DMG-PEG2k=55:5:40:1 (molar ratio)) was prepared by the method described in [Experimental Example 2], 1.
The prepared each mRNA-encapsulating LNP dispersion was administered from the tail vein of BALB/c mouse (male, 5-week-old). The dose of mRNA was set to 0.05 mg per 1 kg body weight of the mouse, and the dose of the mRNA-encapsulating LNP dispersion was set to 10 μL per 1 g body weight of the mouse. After 4.5 hr from the administration of the mRNA-encapsulating LNP dispersion, a PBS solution of D-luciferin potassium was administered into the abdominal cavity of the mouse. The dose of D-luciferin potassium was set to 3 mg per mouse, and the dose of the PBS solution of D-luciferin potassium was set to 200 μL per mouse. After 15 min from the administration of the PBS solution of D-luciferin potassium, the mouse was euthanized, and the liver, spleen, kidney, heart, and lung were isolated. The luminescence in each organ was quantified using an in vivo imaging system (IVIS) with an exposure of 10 sec. The amount of luminescence in each organ was quantified by image analysis using Live Imaging software attached to IVIS. The amount of luminescence (photons/sec) was calculated from the acquired image and used as an index of gene expression activity. “E+0a” (a: integer) indicated in Table 7 and Table 8 means “10^a”. For example, “1.0E+02” means “1.0×10^2”. In Comparative Example, the cationic lipid described in the aforementioned Table 3 were used.

Data set [4] deals with HeLa cells. Description: Evaluation of in vitro gene expression in HeLa cell (luciferase mRNA-encapsulating LNP). It counts as cell-based, human. To be noted: for cumulative luciferase luminescence intensity over 24 hr: luciferase mRNA 0.4 μg per dish, LNP cationic lipid:DOPC:Chol:DMG-PEG2k=55:5:40:1. The method, then: as §1
HeLa cells, which are human cervical cancer cells, were seeded in a 3.5 cm dish at 5.0×10^4 cells/2 mL/Dish 24 hours before transfection. After 24 hours, the medium was exchanged with a culture medium (D-MEM) containing 0.1 mM D-luciferin. Prepared mRNA-encapsulating LNP was diluted with PBS such that the concentration of mRNA was about 8 μg/mL. The diluted mRNA-encapsulating LNP solution (about 50 μL, mRNA: 0.4 μg) was added to the 3.5 cm dish and set in an incubator luminometer KronosDio. The luminescence intensity of luciferase was measured for 2 min every one hour. The cumulative luciferase luminescence intensity for 24 hr was calculated from the obtained time change of expression. For example, “1.0E+06” means “1.0×10^6”. In Comparative Example, the cationic lipid described in the aforementioned Table 3 were used.

In general, pKa refers to the negative logarithm of the acid dissociation constant. With `CCCCCCCCC(CCCCCC)C(=O)Oc1ccc(CC(=O)OCCSSCCOC(=O)CN(C)C)cc1` (stereo not shown) [Example 1], in data set [1], the PdI is listed as 0.072, the particle size was 82 nm and the zeta potential is given as −3.4 mV. In addition, the pKa in data set [2] came out at 5.7.
As to `CCCCCCCCCCC(CCCCCCCCCC)C(=O)Oc1ccc(CC(=O)OCCSSCCOC(=O)CN(C)C)cc1` [Example 2], in data set [1], the PdI came out at 0.072, the particle size is listed as 84 nm and the zeta potential is listed as −2.9 mV. Also, the pKa in data set [2] is 5.7.
As to `CCCCCCCCCCCCCCC(CCCCCCCCCCCCCC)C(=O)Oc1ccc(CC(=O)OCCSSCCOC(=O)CN(C)C)cc1` [Example 3], in data set [1], the PdI is reported as 0.078, the particle size turned out to be 90 nm and the zeta potential is −3.0 mV.
The like results for `CCCCCCCC/C=C\CCCCCCCC(=O)Oc1ccc(CC(=O)OCCSSCCOC(=O)CN(C)C)cc1OC(=O)CCCCCCC/C=C\CCCCCCCC` [Example 14] were, in that order, 0.071, 67 nm and −4.1 mV.
As for `CCCCCCCCCCCCCCCCC(CCCCCCCCCCCCCCCC)C(=O)Oc1ccc(CC(=O)OCCSSCCN(C)C)cc1` [Example 16], in data set [1], the PdI is 0.067, the particle size is listed as 97 nm and the zeta potential is listed as −2.5 mV. Besides, the pKa in data set [2] stood at 6.4.
Take `CCCCCCCCCCCCCCCCC(CCCCCCCCCCCCCCCC)C(=O)Oc1ccc(CC(=O)NCCSSCCNC(=O)CCCN(C)C)cc1` [Example 20]: the pKa in data set [2] was 8.8. In data set [3] (spleen, relative to O-Ph-P4C2 LNP = 1.00), the “relative value based on Comparative Example (amount of luminescence in spleen)” value is given as 0.05. Besides, the “amount of luminescence in each organ: heart” value in data set [3] (tail vein, mRNA 0.05 mg/kg, 4.5 hr + 15 min after administration, heart) was 6.26E+05 photons/sec. For the same molecule, in data set [3] (tail vein, mRNA 0.05 mg/kg, 4.5 hr + 15 min after administration, kidney), the “amount of luminescence in each organ: kidney” value is 4.34E+05 photons/sec. Also, the “amount of luminescence in each organ: liver” value in data set [3] (tail vein, mRNA 0.05 mg/kg, 4.5 hr + 15 min after administration, liver) was determined as 4.95E+05 photons/sec. For the same molecule, the “amount of luminescence in each organ: lung” value in data set [3] (tail vein, mRNA 0.05 mg/kg, 4.5 hr + 15 min after administration, lung) came out at 3.68E+05 photons/sec. Besides, the “amount of luminescence in each organ: spleen” value in data set [3] (tail vein, mRNA 0.05 mg/kg, 4.5 hr + 15 min after administration, spleen (Table 7)) is reported as 5.18E+05 photons/sec.
For `CCCCCCCCCCCCCCCCC(CCCCCCCCCCCCCCCC)C(=O)Oc1ccc(CC(=O)OCCSSCCOC(=O)NCCN2CCOCC2)cc1` [Example 26], the pKa in data set [2] turned out to be 5.7. Also, the “cumulative luciferase luminescence intensity over 24 hr” value in data set [4] is recorded as 3.29E+05 RLU.
The corresponding values for `CCCCCCCCCCCCCCCCC(CCCCCCCCCCCCCCCC)C(=O)Oc1ccc(CC(=O)OCCSSCCOC(=O)NCCN(CCCC)CCCC)cc1` [Example 27] are 5.7 and 9.60E+05 RLU.
`CCCCCCCCCCCCCCCC(=O)OCC(C)(COC(=O)CCCCCCCCCCCCCCC)C(=O)Oc1ccc(CC(=O)OCCSSCCOC(=O)NCCN(CC)CC)cc1` [Example 32]: the pKa in data set [2] is 7.2. Moreover, the “cumulative luciferase luminescence intensity over 24 hr” value in data set [4] came to 8.77E+07 RLU. Also, in data set [4] (result in words), the “gene expression activity compared to Comparative Example” value is given as “superior gene expression activity”.
For `CCCCCCCCCCCCCCCCCC(=O)OCC(C)(COC(=O)CCCCCCCCCCCCCCCCC)C(=O)Oc1ccc(CC(=O)OCCSSCCOC(=O)NCCN(CC)CC)cc1` [Example 33], in data set [2], the pKa worked out at 7.1. Also, the “cumulative luciferase luminescence intensity over 24 hr” value in data set [4] turned out to be 5.38E+06 RLU.
As for `CCCCCCCCCCCCCCCCC(CCCCCCCCCCCCCCCC)C(=O)Oc1ccc(CC(=O)OCCSSCCOC(=O)/C=C/CN(C)C)cc1` [Example 38], in data set [1], the PdI worked out at 0.106, the particle size came out at 106 nm and the zeta potential is given as −3.8 mV. The “cumulative luciferase luminescence intensity over 24 hr” value in data set [4] was found to be 1.31E+05 RLU.
The corresponding values for `CCCCCCCCCCCCCCCCC(CCCCCCCCCCCCCCCC)C(=O)Oc1ccc(CC(=O)OCCSSCCOC(=O)/C=C/CN(CC)CC)cc1` [Example 39] are 0.128, 107 nm, −5.3 mV and 3.95E+04 RLU.
The like results for `CCCCCCCCCCCCCCCCC(CCCCCCCCCCCCCCCC)C(=O)Oc1ccc(CC(=O)OCCSSCCOC(=O)/C=C/CN(CC)CCO)cc1` [Example 40] were, in that order, 0.104, 89 nm, 0.1 mV and 2.33E+05 RLU.
Take `CCCCCCCCCCCCCCCCC(CCCCCCCCCCCCCCCC)C(=O)Oc1ccc(CC(=O)OCCCCSSCCCCOC(=O)CCCN(C)C)cc1` [Example 41]: in data set [1], the PdI is listed as 0.091, the particle size is given as 80 nm and the zeta potential stood at 4.0 mV.
